# Assay results as given in US20220249687A1, “BIS(2-HALOACETAMIDO)-COMPOUNDS FOR USE AS LINKING AGENTS AND RESULTANT PRODUCTS WHICH COMPRISE ANTIBODIES, HALF-ANTIBODIES AND ANTIBODY FRAGMENTS” (THE UNIVERSITY OF BATH, priority 2019, published 2022).
# Experiment: Reactivity of linker compounds with glutathione
# Settings: pH=7, RT
# Description: Relative reactivities of the compounds were evaluated towards the small thiol containing peptide glutathione (pH=7, RT). […] Without wishing to be bound by any particular theory, the inventors speculate that the difference in reactivity and stability of the ortho and meta compounds may be attributed to differences in the 3D structures of each compound. Methyl 3,5-bis(2-chloroacetamido)benzoate (1) is predicted to have a planar conformation. Thus, steric hindrance could slow the backside attack of thiolate at the carbon attached to halogen (through an SN2 mechanism). This might explain the greater reactivity of ortho compounds like methyl 3,4-bis(2-chloroacetamido)benzoate (4). Compound (4) is not planar and might afford a more accessible carbon for backside attack.
# The reactivity of the linker compounds of the present invention was tested by reaction with glutathione. The following representative reactions are described. Analogous reactions were performed with amide functionalised linker compounds.
# The inventors compared the reactivity of various linker compounds of the invention by determining the percentage remaining of the bis-haloacetamide derivatives 14-17 in the presence of glutathione (2.2 equiv.) in aqueous phosphate buffer (100 mM, pH 7.5).
compound,measurement,value
"COC(=O)c1ccc(NC(=O)CCl)c(NC(=O)CCl)c1 [Compound 4, methyl 3,4-bis(2-chloroacetamido)benzoate]",relative reactivity towards glutathione (reaction rate),"react significantly faster than the 3,5-bis-Cl compound (1)"
